Source: ChEMBL document CHEMBL4823284, “Design, synthesis and biological evaluation of double fatty chain-modified glucagon-like peptide-1 conjugates” (Bioorg Med Chem, 2021)
Calls of active or inactive are those of the source. The rule behind the calls is not given here.

How the values were obtained:
[1] = molecular target: T1, Glucagon-like peptide 1 receptor (Homo sapiens, UniProt P43220); test: Activation of GLP1R (unknown origin) CRE-bla expressed in CHO-K1 cells assessed as receptor potency incubated for 1 hrs by time resolved fluorescence resonance energy transfer immunoassay; format: functional, cell-based
T1 sequence (P43220 whole entry): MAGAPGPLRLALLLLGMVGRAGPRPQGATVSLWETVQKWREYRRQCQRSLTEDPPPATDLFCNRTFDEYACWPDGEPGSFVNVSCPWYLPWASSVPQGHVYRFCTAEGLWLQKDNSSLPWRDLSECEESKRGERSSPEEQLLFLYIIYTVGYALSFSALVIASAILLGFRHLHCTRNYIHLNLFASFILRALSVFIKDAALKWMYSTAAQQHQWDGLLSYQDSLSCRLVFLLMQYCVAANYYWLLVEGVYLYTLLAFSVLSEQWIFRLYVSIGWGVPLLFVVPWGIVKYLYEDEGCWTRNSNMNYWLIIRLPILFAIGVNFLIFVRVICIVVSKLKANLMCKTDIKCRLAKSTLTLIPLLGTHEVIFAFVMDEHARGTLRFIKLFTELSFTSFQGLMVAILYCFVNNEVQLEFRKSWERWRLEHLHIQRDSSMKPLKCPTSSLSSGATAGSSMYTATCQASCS

Mus musculus [2] = test: Hypoglycemic effect in intragastric starch treated mouse assessed as reduction in blood glucose level at 30 nmol/kg, sc measured up to 24 hrs; format: functional, organism-based; conditions: time hrs <=24
[3] = molecular target: T1, Glucagon-like peptide 1 receptor; test: Binding affinity to GLP1R (unknown origin) assessed as dissociation rate constant by surface plasmon resonance analysis
Mus musculus [4] = test: Hypoglycemic effect in intragastric starch treated mouse assessed as reduction in blood glucose level at 30 nmol/kg, sc measured at 1.5 hrs; format: functional, organism-based
[5] = molecular target: T1, Glucagon-like peptide 1 receptor; test: Binding affinity to GLP1R (unknown origin) assessed as equilibrium constant by surface plasmon resonance analysis; conditions: filed as activator
[6] = Toxicity in mouse assessed as change in body weight at 30 nmol/kg, sc measured at 1.5 hrs; format: organism-based; conditions: in vivo
Mus musculus [7] = test: Hypoglycemic effect in intragastric starch treated mouse assessed as decrease in glucose AUC at 30 nmol/kg, sc measured up to 24 hrs; format: functional, organism-based; conditions: time hrs <=24
Albumin = Albumin (Homo sapiens, UniProt P02768); test: Binding affinity to albumin (unknown origin) after 8 hrs by HPLC analysis; format: ADME; set-up: concentration or dose not given beside the values; conditions: isolated protein
Chain of Albumin (P02768 whole entry): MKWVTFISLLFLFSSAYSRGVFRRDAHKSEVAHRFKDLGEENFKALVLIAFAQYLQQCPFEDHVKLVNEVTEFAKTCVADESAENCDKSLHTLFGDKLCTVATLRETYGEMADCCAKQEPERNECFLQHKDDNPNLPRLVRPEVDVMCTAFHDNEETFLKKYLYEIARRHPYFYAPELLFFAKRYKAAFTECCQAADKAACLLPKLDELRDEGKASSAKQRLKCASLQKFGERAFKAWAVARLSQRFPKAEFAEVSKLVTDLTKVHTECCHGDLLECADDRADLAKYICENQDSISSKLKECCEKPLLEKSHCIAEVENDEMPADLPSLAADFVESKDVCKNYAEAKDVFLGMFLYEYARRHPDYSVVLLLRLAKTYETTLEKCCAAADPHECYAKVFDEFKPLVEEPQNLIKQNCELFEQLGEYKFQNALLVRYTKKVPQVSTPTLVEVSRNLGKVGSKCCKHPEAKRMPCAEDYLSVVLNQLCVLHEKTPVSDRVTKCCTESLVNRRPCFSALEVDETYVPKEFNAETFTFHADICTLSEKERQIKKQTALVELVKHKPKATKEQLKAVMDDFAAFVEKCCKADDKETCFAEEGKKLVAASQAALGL

[8] = molecular target: T1, Glucagon-like peptide 1 receptor; test: Binding affinity to GLP1R (unknown origin) assessed as binding rate constant by surface plasmon resonance analysis; conditions: filed as activator

| Compound | EC50 [1] [nM] | Activity (Mus musculus [2]) | Dissociation rate constant (koff) [3] | Activity (Mus musculus [4]) | Ke [5] | Activity [6] | Activity (Mus musculus [7]) | Activity (Albumin) [%] | Ka [8] |
| --- | --- | --- | --- | --- | --- | --- | --- | --- | --- |
| CCCCCCCCCCCCCCCC(=O)N[C@@H](CCC(=O)NCCCC[C@H](NC(=O)CC[C@H](NC(=O)CCCCCCCCCCCCCCC)C(=O)O)C(=O)NCCOCCOCC(=O)NCCOCCOCC(=O)O)C(=O)O | 0.0788 |  |  |  |  |  |  |  |  |
| CCCCCCCCCCCC(=O)N[C@@H](CCC(=O)NCCCC[C@H](NC(=O)CC[C@H](NC(=O)CCCCCCCCCCC)C(=O)O)C(=O)NCCOCCOCC(=O)NCCOCCOCC(=O)O)C(=O)O | 0.0101 | Active | 8.57 10^-3/s | Active | 1.44 10^-5M | Toxic | Active | 94.3 | 5.97 10^2/Ms |
| SEMAGLUTIDE [listing 1 of 2 here] |  | Active |  | Active | 1.33 10^-6M |  | Active |  | 9.24 10^4/Ms |
| CCCCCCCCCCCCCCCC(=O)N[C@@H](CCC(=O)NCCCC[C@H](NC(=O)CC[C@H](NC(=O)CCCCCCCCCCCCCCC)C(=O)O)C(=O)NCCOCCOCC(=O)O)C(=O)O | 0.0723 |  |  |  |  |  |  |  |  |
| CCCCCCCCCCCC(=O)N[C@@H](CCC(=O)NCCCC[C@H](NC(=O)CC[C@H](NC(=O)CCCCCCCCCCC)C(=O)O)C(=O)NCCOCCOCC(=O)O)C(=O)O | 0.0142 | Active | 6.5 10^-3/s | Active | 5.85 10^-6M | Toxic | Active | > 99 | 1.11 10^3/M/s |
| CCCCCCCCCCCCCC(=O)N[C@@H](CCC(=O)NCCCC[C@H](NC(=O)CC[C@H](NC(=O)CCCCCCCCCCCCC)C(=O)O)C(=O)NCCOCCOCC(=O)O)C(=O)O | 0.0096 | Active |  | Active |  | Toxic |  |  |  |
| CCCCCCCCCCCCCC(=O)N[C@@H](CCC(=O)NCCCC[C@H](NC(=O)CC[C@H](NC(=O)CCCCCCCCCCCCC)C(=O)O)C(=O)NCCOCCOCC(=O)NCCOCCOCC(=O)O)C(=O)O | 0.0066 |  |  |  |  | Toxic | Active |  |  |
| CCCCCCCCCCCCCC(=O)N[C@@H](CCC(=O)NCCCC[C@H](NC(=O)CC[C@H](NC(=O)CCCCCCCCCCCCC)C(=O)O)C(=O)NCCOCCOCC(=O)NCCOCCOCC(=O)NCCOCCOCC(=O)O)C(=O)O | 0.0016 | Active |  | Active |  | Toxic | Active |  |  |
| CCCCCCCCCCCCCCCC(=O)N[C@@H](CCC(=O)NCCCC[C@H](NC(=O)CC[C@H](NC(=O)CCCCCCCCCCCCCCC)C(=O)O)C(=O)NCCOCCOCC(=O)NCCOCCOCC(=O)NCCOCCOCC(=O)O)C(=O)O | 0.0274 |  |  |  |  |  |  |  |  |
| CCCCCCCCCC(=O)N[C@@H](CCC(=O)NCCCC[C@H](NC(=O)CC[C@H](NC(=O)CCCCCCCCC)C(=O)O)C(=O)NCCOCCOCC(=O)NCCOCCOCC(=O)O)C(=O)O | 0.2 |  |  |  |  |  |  | 90.2 |  |
| SEMAGLUTIDE [listing 2 of 2 here] |  |  |  |  |  | Toxic |  | > 99 |  |
| CCCCCCCCCC(=O)N[C@@H](CCC(=O)NCCCC[C@H](NC(=O)CC[C@H](NC(=O)CCCCCCCCC)C(=O)O)C(=O)NCCOCCOCC(=O)O)C(=O)O | 0.143 |  |  |  |  |  |  | 94.5 |  |
| CCCCCCCCCCCC(=O)N[C@@H](CCC(=O)NCCCC[C@H](NC(=O)CC[C@H](NC(=O)CCCCCCCCCCC)C(=O)O)C(=O)NCCOCCOCC(=O)NCCOCCOCC(=O)NCCOCCOCC(=O)O)C(=O)O | 0.0051 | Active | 2.37 10^-2/s | Active | 7.25 10^-6M | Toxic | Active | 91.6 | 3.26 10^3/M/s |
| CCCCCCCCCC(=O)N[C@@H](CCC(=O)NCCCC[C@H](NC(=O)CC[C@H](NC(=O)CCCCCCCCC)C(=O)O)C(=O)NCCOCCOCC(=O)NCCOCCOCC(=O)NCCOCCOCC(=O)O)C(=O)O | 0.132 |  |  |  |  |  |  | 86 |  |
